This is an account of results in ChEMBL document CHEMBL2073871, “Human P-glycoprotein transports cortisol, aldosterone, and dexamethasone, but not progesterone” (J Biol Chem, 1992).

For data set [1], the target named is T1, ATP-dependent translocase ABCB1 (Homo sapiens, UniProt P08183). As to the kind of experiment: TP_TRANSPORTER: inhibition of Cortisol transepithelial transport (basal to apical) (Cortisol: 0.011? uM, Progesterone: 50 uM) in MDR1-expressing LLC-PK1 cells. It counts as functional, cell-based. As to conditions: pig, llc-pk1, 50 µM.
T1 sequence (P08183 whole entry): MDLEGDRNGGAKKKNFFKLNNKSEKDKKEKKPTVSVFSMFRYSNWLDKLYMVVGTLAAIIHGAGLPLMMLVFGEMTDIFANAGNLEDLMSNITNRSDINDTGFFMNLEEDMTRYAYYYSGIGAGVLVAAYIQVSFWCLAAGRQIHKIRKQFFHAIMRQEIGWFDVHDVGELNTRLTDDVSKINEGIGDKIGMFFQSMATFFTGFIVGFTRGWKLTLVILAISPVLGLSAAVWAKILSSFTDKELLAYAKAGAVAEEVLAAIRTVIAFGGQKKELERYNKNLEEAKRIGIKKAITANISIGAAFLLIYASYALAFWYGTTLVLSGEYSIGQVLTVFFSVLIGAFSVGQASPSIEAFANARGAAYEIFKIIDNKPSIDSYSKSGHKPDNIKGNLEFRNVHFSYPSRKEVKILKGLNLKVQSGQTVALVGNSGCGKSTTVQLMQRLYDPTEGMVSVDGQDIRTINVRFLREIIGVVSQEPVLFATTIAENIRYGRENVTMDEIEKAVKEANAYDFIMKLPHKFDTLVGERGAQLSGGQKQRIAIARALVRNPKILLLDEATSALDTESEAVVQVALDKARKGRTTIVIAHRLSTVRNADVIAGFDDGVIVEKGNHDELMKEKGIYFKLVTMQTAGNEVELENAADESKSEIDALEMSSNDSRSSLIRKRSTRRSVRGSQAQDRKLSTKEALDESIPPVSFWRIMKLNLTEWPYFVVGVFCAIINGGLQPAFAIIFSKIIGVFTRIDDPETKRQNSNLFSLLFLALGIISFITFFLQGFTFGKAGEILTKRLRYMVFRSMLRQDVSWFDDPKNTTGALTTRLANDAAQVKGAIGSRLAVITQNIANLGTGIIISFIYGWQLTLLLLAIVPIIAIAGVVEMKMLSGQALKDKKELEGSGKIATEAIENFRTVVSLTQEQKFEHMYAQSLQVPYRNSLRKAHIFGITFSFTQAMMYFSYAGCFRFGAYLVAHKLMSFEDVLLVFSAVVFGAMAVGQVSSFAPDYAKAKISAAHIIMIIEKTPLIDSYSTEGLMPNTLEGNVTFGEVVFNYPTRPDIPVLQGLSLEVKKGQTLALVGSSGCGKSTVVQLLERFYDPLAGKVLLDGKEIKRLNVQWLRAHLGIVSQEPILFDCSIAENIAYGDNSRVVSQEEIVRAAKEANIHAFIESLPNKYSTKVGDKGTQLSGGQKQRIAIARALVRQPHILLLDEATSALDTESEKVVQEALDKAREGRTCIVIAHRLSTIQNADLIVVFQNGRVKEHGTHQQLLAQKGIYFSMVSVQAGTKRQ
Data set [2] deals with T1, ATP-dependent translocase ABCB1. As to the kind of experiment: TP_TRANSPORTER: transepithelial transport (basal to apical) in MDR1-expressing LLC-PK1 cells. It counts as functional, cell-based. The conditions noted are these: pig.

Consider `CC(=O)[C@H]1CC[C@H]2[C@@H]3CCC4=CC(=O)CC[C@]4(C)[C@H]3CC[C@]12C` [PROGESTERONE], for which the Activity entry was “inhibitor [+]” in data set [1] and “is not a substrate [-]” in data set [2].

Take `C[C@]12CCC(=O)C=C1CC[C@@H]1[C@@H]2[C@@H](O)C[C@]2(C=O)[C@@H](C(=O)CO)CC[C@@H]12` [ALDOSTERONE]: in data set [2], the Activity entry was “substrate [+]”.

As for `C[C@]12CCC(=O)C=C1CC[C@@H]1[C@@H]2[C@@H](O)C[C@@]2(C)[C@H]1CC[C@]2(O)C(=O)CO` [HYDROCORTISONE], the Activity result in data set [2] was “substrate [+]”.
